Here are results for 18 compounds from patent US12545685B2 (Daiichi Sankyo Company, Limited, priority 2011, dated 2026).

Molecules are shown by their SMILES.

The target in the experiment is T1, Mdm2/p53 binding (GST-Mdm2 / His-p53) (Homo sapiens, UniProt Q00987, L33E).
T1 construct: Mdm2 partial protein having Mdm2 amino acids at positions 25 to 108
T1 sequence (Q00987 25-108 L33E): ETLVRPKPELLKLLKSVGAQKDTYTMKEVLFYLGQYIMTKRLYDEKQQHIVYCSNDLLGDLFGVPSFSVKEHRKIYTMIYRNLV
Briefly: Mdm2/p53 binding assay (HTRF, His-p53 and GST-Mdm2). Particulars: His-p53 (aa 1-132) and GST-Mdm2 (aa 25-108, L33E) 6.25 nM each; 25°C, 1 hour; values given as ranges. The method, boiled down:
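Binding was detected by HTRF (ex 320 nm, em 620/665 nm) after 1 h at 25 °C, using Eu-cryptate anti-GST and XL665 anti-His antibodies. The protein pair was GST-Mdm2 (residues 25–108, L33E) with His-p53 (residues 1–132), each 6.25 nM in the protein dilution. T/C used no-compound control and no-p53 background, and IC50 came from sigmoid fitting.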
A word on the IC50: it is the concentration that gives 50% inhibition. The low end stands for greater potency in that assay, the high end for weaker potency in that assay. For `CO[C@@H]1C[C@@H](NC(=O)[C@@H]2NC3(CC(CF)(CF)C3)[C@@]3(C(=O)Nc4cc(Cl)ccc43)[C@H]2c2cccc(Cl)c2F)CO[C@@H]1CO` [Example 129, (3′R,4′S,5′R)-6″-chloro-4′-(3-chloro-2-fluorophenyl)-3,3-bis(fluoromethyl)-N-[(3R,5R,6R)-6-(hydroxymethyl)-5-methoxytetrahydro-2H-pyran-3-yl]-2″-oxo-1″,2″-dihydrodispiro[cyclobutane-1,2′-pyrrolidine-3′,3″-indole]-5′-carboxamide], the IC50 fell in the range of 1 to 50 nM.
In turn, `CC1(C)CCC2(CC1)N[C@@H](C(=O)N[C@H]1CC[C@H](c3nnc(CO)o3)CC1)[C@H](c1ccnc(Cl)c1F)[C@]21C(=O)Nc2cc(Cl)ccc21` [Example 130, (3′R, 4′S,5′R)-6″-chloro-4′-(2-chloro-3-fluoropyridin-4-yl)-N-{trans-4-[5-(hydroxymethyl)-1,3,4-oxadiazol-2-yl]cyclohexyl}-4,4-dimethyl-2″-oxo-1″,2″-dihydrodispiro[cyclohexane-1,2′-pyrrolidine-3′,3″-indole]-5′-carboxamide] returned an IC50 of 1 to 50 nM.
As for `O=C(N[C@H]1CC[C@H](c2nnc(CO)o2)CC1)[C@@H]1NC2(CC(CF)(CF)C2)[C@@]2(C(=O)Nc3cc(Cl)ccc32)[C@H]1c1cccc(Cl)c1F` [Example 131, (3′R, 4′S,5′R)-6″-chloro-4′-(3-chloro-2-fluorophenyl)-3,3-bis(fluoromethyl)-N-[trans-4-[5-(hydroxymethyl)-1,3,4-oxadiazol-2-yl]cyclohexyl]-2″-oxo-1″,2″-dihydrodispiro[cyclobutane-1,2′-pyrrolidine-3′,3″-indole]-5′-carboxamide], the IC50 lay in the range of 50 to 100 nM.
In the case of `C[C@@H](O)c1nnc([C@H]2CC[C@H](NC(=O)[C@@H]3NC4(CCC(C)(C)CC4)[C@@]4(C(=O)Nc5cc(Cl)ccc54)[C@H]3c3ccnc(Cl)c3F)CC2)o1` [Example 132, (3′R, 4′S, S′R)-6″-chloro-4′-(2-chloro-3-fluoropyridin-4-yl)-N-(trans-4-{5-[(1R)-1-hydroxyethyl]-1,3,4-oxadiazol-2-yl}cyclohexyl)-4,4-dimethyl-2″-oxo-1″,2″-dihydrodispiro[cyclohexane-1,2′-pyrrolidine-3′,3″-indole]-5′-carboxamide] it was 50 to 100 nM.
As to `COC[C@@H]1CC[C@@H](NC(=O)[C@@H]2NC3(CCC(C)(C)CC3)[C@@]3(C(=O)Nc4cc(Cl)ccc43)[C@H]2c2ccnc(Cl)c2F)CO1` [Example 133, (3′R, 4′S,5′R)-6″-chloro-4′-(2-chloro-3-fluoropyridin-4-yl)-N-[(3R,6S)-6-(methoxymethyl)tetrahydro-2H-pyran-3-yl]-4,4-dimethyl-2″-oxo-1″,2″-dihydrodispiro[cyclohexane-1,2′-pyrrolidine-3′,3″-indole]-5′-carboxamide], the IC50 fell in the range of 50 to 100 nM.
The compound `NC(=O)[C@H]1C[C@H](NC(=O)[C@@H]2NC3(CC(CF)(CF)C3)[C@@]3(C(=O)Nc4cc(Cl)ccc43)[C@H]2c2cccc(Cl)c2F)C1` [Example 134, (3′R, 4′S,5′R)—N-(trans-3-carbamoylcyclobutyl)-6″-chloro-4′-(3-chloro-2-fluorophenyl)-3,3-bis(fluoromethyl)-2″-oxo-1″,2″-dihydrodispiro[cyclobutane-1,2′-pyrrolidine-3′,3″-indole]-5′-carboxamide] came in with an IC50 of 1 to 50 nM.
Take `CC(C)(O)[C@@H]1CC[C@@H](NC(=O)[C@@H]2NC3(CC(CF)(CF)C3)[C@@]3(C(=O)Nc4cc(Cl)ccc43)[C@H]2c2cccc(Cl)c2F)CO1` [Example 135, (3′R, 4′S,5′R)-6″-chloro-4′-(3-chloro-2-fluorophenyl)-3,3-bis(fluoromethyl)-N-[(3R,6S)-6-(1-hydroxy-1-methylethyl)tetrahydro-2H-pyran-3-yl]-2″-oxo-1″,2″-dihydrodispiro[cyclobutane-1,2′-pyrrolidine-3′,3″-indole]-5′-carboxamide]: the IC50 was 100 to 500 nM.
Take `O=C(N[C@@H]1CC[C@@H](c2nnco2)OC1)[C@@H]1NC2(CC(CF)(CF)C2)[C@@]2(C(=O)Nc3cc(Cl)ccc32)[C@H]1c1cccc(Cl)c1F` [Example 136, (3′R, 4′S,5′R)-6″-chloro-4′-(3-chloro-2-fluorophenyl)-3,3-bis(fluoromethyl)-N-[(3R,6S)-6-(1,3,4-oxadiazol-2-yl)tetrahydro-2H-pyran-3-yl]-2″-oxo-1″,2″-dihydrodispiro[cyclobutane-1,2′-pyrrolidine-3′,3″-indole]-5′-carboxamide]: the IC50 fell in the range of 1 to 50 nM.
Take `O=C(NC1CCOCC1)[C@@H]1CC[C@@H](NC(=O)[C@@H]2NC3(CC(CF)(CF)C3)[C@@]3(C(=O)Nc4cc(Cl)ccc43)[C@H]2c2cccc(Cl)c2F)CO1` [Example 137, (3′R, 4′S,5′R)-6″-chloro-4′-(3-chloro-2-fluorophenyl)-3,3-bis(fluoromethyl)-2″-oxo-N-[(3R,6S)-6-(tetrahydro-2H-pyran-4-ylcarbamoyl)tetrahydro-2H-pyran-3-yl]-1″,2″-dihydrodispiro[cyclobutane-1,2′-pyrrolidine-3′,3″-indole]-5′-carboxamide]: the IC50 fell in the range of 50 to 100 nM.
The result for `O=C(NCCF)[C@@H]1CC[C@@H](NC(=O)[C@@H]2NC3(CC(CF)(CF)C3)[C@@]3(C(=O)Nc4cc(Cl)ccc43)[C@H]2c2cccc(Cl)c2F)CO1` [Example 138, (3′R, 4′S,5′R)-6″-chloro-4′-(3-chloro-2-fluorophenyl)-N-{(3R,6S)-6-[(2-fluoroethyl)carbamoyl]tetrahydro-2H-pyran-3-yl}-3,3-bis(fluoromethyl)-2″-oxo-1″,2″-dihydrodispiro[cyclobutane-1,2′-pyrrolidine-3′,3″-indole]-5′-carboxamide] reads 50 to 100 nM; that for `COCCN(C)C(=O)[C@@H]1CC[C@@H](NC(=O)[C@@H]2NC3(CC(CF)(CF)C3)[C@@]3(C(=O)Nc4cc(Cl)ccc43)[C@H]2c2cccc(Cl)c2F)CO1` [Example 139, (3′R, 4′S,5′R)-6″-chloro-4′-(3-chloro-2-fluorophenyl)-3,3-bis(fluoromethyl)-N-[(3R,6S)-6-[(2-methoxyethyl)(methyl)carbamoyl]tetrahydro-2H-pyran-3-yl]-2″-oxo-1″,2″-dihydrodispiro[cyclobutane-1,2′-pyrrolidine-3′,3″-indole]-5′-carboxamide], 1 to 50 nM; that for `CN(C)C(=O)[C@@H]1CC[C@@H](NC(=O)[C@@H]2NC3(CCC(C)(C)CC3)[C@@]3(C(=O)Nc4cc(Cl)ccc43)[C@H]2c2ccnc(Cl)n2)CO1` [Example 140, (3′R, 4′R, 5′R)-6″-chloro-4′-(2-chloropyrimidin-4-yl)-N-[(3R,6S)-6-(dimethylcarbamoyl)tetrahydro-2H-pyran-3-yl]-4,4-dimethyl-2″-oxo-1″,2″-dihydrodispiro[cyclohexane-1,2′=pyrrolidine-3′,3″-indole]-5′-carboxamide], 50 to 100 nM.
In the case of `CCNC(=O)[C@@H]1CC[C@@H](NC(=O)[C@@H]2NC3(CC(CF)(CF)C3)[C@@]3(C(=O)Nc4cc(Cl)ccc43)[C@H]2c2cccc(Cl)c2F)CO1` [Example 141], the half-inhibitory concentration (IC50) was in the range of 1 to 50 nM.
In the case of `COCCNC(=O)[C@@H]1CC[C@@H](NC(=O)[C@@H]2NC3(CC(CF)(CF)C3)[C@@]3(C(=O)Nc4cc(Cl)ccc43)[C@H]2c2cccc(Cl)c2F)CO1` [Example 142, (3′R, 4′S,5′R)-6″-chloro-4′-(3-chloro-2-fluorophenyl)-3,3-bis(fluoromethyl)-N-{(3R,6S)-6-[(2-methoxyethyl)carbamoyl]tetrahydro-2H-pyran-3-yl}-2″-oxo-1″,2″-dihydrodispiro[cyclobutane-1,2′-pyrrolidine-3′,3″-indole]-5′-carboxamide] it was 1 to 50 nM; in that of `COC[C@@H]1CC[C@@H](NC(=O)[C@@H]2NC3(CC(CF)(CF)C3)[C@@]3(C(=O)Nc4cc(Cl)ccc43)[C@H]2c2cccc(Cl)c2F)CO1` [Example 143, (3′R, 4′S,5′R)-6″-chloro-A′-(3-chloro-2-fluorophenyl)-3,3-bis(fluoromethyl)-N-[(3R,6S)-6-(methoxymethyl)tetrahydro-2H-pyran-3-yl]-2″-oxo-1″,2″-dihydrodispiro[cyclobutane-1,2′-pyrrolidine-3′,3″-indole]-5′-carboxamide], 50 to 100 nM; in that of `CN(C)C(=O)[C@H]1C[C@H](NC(=O)[C@@H]2NC3(CC(CF)(CF)C3)[C@@]3(C(=O)Nc4cc(Cl)ccc43)[C@H]2c2cccc(Cl)c2F)C1` [Example 145, (3′R, 4′S,5′R)-6″-chloro-4′-(3-chloro-2-fluorophenyl)-N-[trans-3-(dimethylcarbamoyl)cyclobutyl]-3,3-bis(fluoromethyl)-2″-oxo-1″,2″-dihydrodispiro[cyclobutane-1,2′-pyrrolidine-3′,3″-indole]-5′-carboxamide], 50 to 100 nM.
In the case of `CN(C)C(=O)[C@H]1CC[C@H](NC(=O)[C@@H]2NC3(CC(CF)(CF)C3)[C@@]3(C(=O)Nc4cc(Cl)ccc43)[C@H]2c2cccc(Cl)c2F)CC1` [Example 148, (3′R, 4′S,5′R)-6″-chloro-4′-(3-chloro-2-fluorophenyl)-N-[trans-4-(dimethylcarbamoyl)cyclohexyl]-3,3-bis(fluoromethyl)-2″-oxo-1″,2″-dihydrodispiro[cyclobutane-1,2′-pyrrolidine-3′,3″-indole]-5′-carboxamide] it was 1 to 50 nM; in that of `NC(=O)C[C@@H]1CC[C@@H](NC(=O)[C@@H]2NC3(CC(CF)(CF)C3)[C@@]3(C(=O)Nc4cc(Cl)ccc43)[C@H]2c2cccc(Cl)c2F)CO1` [Example 149, (3′R, 4′S,5′R)—N-[(3R,6S)-6-(2-amino-2-oxoethyl)tetrahydro-2H-pyran-3-yl]-6″-chloro-4′-(3-chloro-2-fluorophenyl)-3,3-bis(fluoromethyl)-2″-oxo-1″,2″-dihydrodispiro[cyclobutane-1,2′-pyrrolidine-3′,3″-indole]-5′-carboxamide], 50 to 100 nM.
